The source of these data is ChEMBL document CHEMBL1124945, “1-(substituted-benzyl)imidazole-2(3H)-thione inhibitors of dopamine beta-hydroxylase” (J Med Chem, 1990).

By IC50 is commonly meant the concentration at which inhibition is half-maximal. Read a low IC50 as greater potency.

The assay deals with T1, Dopamine beta-hydroxylase (Rattus norvegicus, UniProt Q05754).
T1 sequence (Q05754 whole entry): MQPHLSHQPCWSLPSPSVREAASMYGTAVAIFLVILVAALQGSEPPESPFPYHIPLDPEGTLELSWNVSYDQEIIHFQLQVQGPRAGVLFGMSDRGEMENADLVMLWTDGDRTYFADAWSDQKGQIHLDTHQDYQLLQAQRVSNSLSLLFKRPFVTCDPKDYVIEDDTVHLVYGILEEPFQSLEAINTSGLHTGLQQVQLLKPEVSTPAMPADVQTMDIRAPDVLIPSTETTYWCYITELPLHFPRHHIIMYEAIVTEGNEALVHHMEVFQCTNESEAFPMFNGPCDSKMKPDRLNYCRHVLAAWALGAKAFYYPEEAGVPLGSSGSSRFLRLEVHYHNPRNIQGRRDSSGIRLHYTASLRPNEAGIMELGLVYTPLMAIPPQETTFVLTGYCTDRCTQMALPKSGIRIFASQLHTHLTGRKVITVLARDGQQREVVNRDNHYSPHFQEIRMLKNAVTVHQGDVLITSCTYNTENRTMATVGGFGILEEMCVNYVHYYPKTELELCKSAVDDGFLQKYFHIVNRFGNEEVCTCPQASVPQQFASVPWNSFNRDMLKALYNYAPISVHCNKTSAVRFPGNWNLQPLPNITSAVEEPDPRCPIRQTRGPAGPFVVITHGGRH
Briefly: Inhibition of dopamine beta-hydroxylase (DbetaH) […].

In turn, `S=c1[nH]ccn1Cc1ccccc1` showed an IC50 of 33.1 µM.

On to `Oc1ccc(Cn2cc[nH]c2=S)cc1C(F)(F)F`, for which inhibition was half-maximal at 120 µM (IC50).

The molecule `S=c1[nH]ccn1Cc1c(Cl)cccc1Cl` had an IC50 of 708 µM.

`O=[N+]([O-])c1ccc(Cn2cc[nH]c2=S)cc1` had an IC50 of 52.5 µM.

As for `S=c1[nH]ccn1Cc1cc(Cl)cc(Cl)c1`, half-maximal inhibition (IC50) required 2.4 µM.

For `COc1ccccc1Cn1cc[nH]c1=S`, 74.1 µM corresponded to half-maximal inhibition (IC50).

Molecule `S=c1[nH]ccn1Cc1cccc(Cl)c1Cl` gave an IC50 of 52.5 µM.

`COc1ccc(Cn2cc[nH]c2=S)cc1F` showed an IC50 of 74.1 µM.

On to `COc1c(F)cc(Cn2cc[nH]c2=S)cc1F`, for which 36.3 µM corresponded to half-maximal inhibition (IC50).

Molecule `S=c1[nH]ccn1Cc1c(Cl)cc(Cl)cc1Cl` showed an IC50 of 102 µM.

On to `S=c1[nH]ccn1Cc1ccccc1Cl`, for which the IC50 is 355 µM.

The molecule `COc1c(Cl)cc(Cn2cc[nH]c2=S)cc1Cl` had an IC50 of 46.8 µM.

`S=c1[nH]ccn1Cc1ccc(Cl)cc1` showed an IC50 of 95.5 µM.

`COc1ccc(Cn2cc[nH]c2=S)cc1OC` had an IC50 of 339 µM.

As to `S=c1[nH]ccn1Cc1ccc(Cl)cc1Cl`, the IC50 is 17 µM.

As for `Oc1c(F)cc(Cn2cc[nH]c2=S)cc1F`, half-maximal inhibition (IC50) was put at 0.0741 µM.

For `COc1ccc(Cn2cc[nH]c2=S)cc1Br`, it took 83.2 µM to reach half-maximal inhibition (IC50).

As to `S=c1[nH]ccn1Cc1cc(Cl)ccc1Cl`, the half-inhibitory concentration (IC50) was 97.7 µM.

Turning to `Oc1cccc(Cn2cc[nH]c2=S)c1`, the IC50 is 148 µM.

As for `O=[N+]([O-])c1cc(Cn2cc[nH]c2=S)ccc1O`, the IC50 is 30.9 µM.

In the case of `Oc1c(F)c(F)c(Cn2cc[nH]c2=S)c(F)c1F`, half-maximal inhibition (IC50) was put at 61.7 µM.

Take `COc1ccc(Cn2cc[nH]c2=S)cc1C`: 69.2 µM corresponded to half-maximal inhibition (IC50).

`COc1cc(Cl)c(Cn2cc[nH]c2=S)c(Cl)c1` gave an IC50 of 155 µM.

The molecule `S=c1[nH]ccn1Cc1ccc(Br)cc1` had an IC50 of 115 µM.

Consider `Cc1cc(Cn2cc[nH]c2=S)ccc1O`, for which the midpoint of inhibition, the IC50, lay at 49 µM.

On to `COc1ccc(Cn2cc[nH]c2=S)cc1[N+](=O)[O-]`, for which 355 µM corresponded to half-maximal inhibition (IC50).

`Fc1cccc(Cn2cc[nH]c2=S)c1` had an IC50 of 5.62 µM.

`Oc1c(Cl)cc(Cn2cc[nH]c2=S)cc1Cl` gave an IC50 of 0.676 µM.

The molecule `Oc1ccccc1Cn1cc[nH]c1=S` showed an IC50 of 575 µM.

`Oc1ccc(Cn2cc[nH]c2=S)cc1F` showed an IC50 of 1.51 µM.

Turning to `FC(F)(F)c1ccc(Cn2cc[nH]c2=S)cc1`, the IC50 was 200 µM.

As to `Cc1ccccc1Cn1cc[nH]c1=S`, the IC50 was 339 µM.

In turn, `Cc1ccc(Cn2cc[nH]c2=S)cc1` gave an IC50 of 148 µM.

As to `COc1cccc(OC)c1Cn1cc[nH]c1=S`, the midpoint of inhibition, the IC50, lay at 501 µM.

For `S=c1[nH]ccn1Cc1ccc(Cl)c(Cl)c1`, the IC50 is 28.2 µM.

With `Oc1ccc(Cn2cc[nH]c2=S)cc1Br`, the IC50 was 12 µM.

`S=c1[nH]ccn1Cc1cccc(Cl)c1` showed an IC50 of 12 µM.

`Oc1cc(Cl)c(Cn2cc[nH]c2=S)c(Cl)c1` gave an IC50 of 75.9 µM.

The molecule `COc1ccc(Cn2cc[nH]c2=S)cc1C(F)(F)F` had an IC50 of 174 µM.

Turning to `Fc1ccc(Cn2cc[nH]c2=S)cc1`, half-maximal inhibition (IC50) required 46.8 µM.

The molecule `Oc1ccc(Cn2cc[nH]c2=S)cc1Cl` had an IC50 of 2 µM.

For `Oc1ccc(Cn2cc[nH]c2=S)cc1O`, the IC50 was 2.19 µM.

Molecule `Cc1cccc(C)c1Cn1cc[nH]c1=S` had an IC50 of 1000 µM.

For `COc1cccc(Cn2cc[nH]c2=S)c1`, 158 µM corresponded to half-maximal inhibition (IC50).

`COc1ccc(Cn2cc[nH]c2=S)cc1` had an IC50 of 204 µM.
